# US11225505B2, “Antimicrobial polymyxin derivative compounds” (MONASH UNIVERSITY, priority 2015, dated 2022)
# Where a SMILES comes first, the peptide text is derived from it. Bridges are numbered along the chain shown (N, C = ends). [ ]: non-standard residue; d: D form. The star is where a group is joined. X37 = O=C(c1ccc(-c2ccc(Cl)cc2)s1)*; X47 = O=C(c1cc2cc(Cl)ccc2[nH]1)*; X6 = Cn1c(C(=O)*)cc2cc(Cl)ccc21; X27 = O=C(c1sc2ccccc2c1Cl)*; X5 = Cc1ccc2nc(C(=O)*)cn2c1; X54 = O=C(c1cccc(Cl)n1)*; Dab = NCC[C@H](N)C(=O)O; X10 = O=C(c1cc(Br)cs1)*; Abu = CC[C@H](N)C(=O)O; Dap = NC[C@H](N)C(=O)O
# Columns and labels:
# Type in all cases: cell-based
# [1] = system: Acinetobacter baumannii FADDI-AB030; experiment: microbe, parasite or virus in culture; settings: FADDI-AB030
# Method: MICs of the lipopeptides (trifluoroacetic acid salt, TFA) were determined by broth microdilution in cation-adjusted Mueller-Hinton broth (CAMHB) (Oxoid Australia, Thebarton, SA, Australia) according to the Clinical and Laboratory Standards Institute protocol (Clinical and Laboratory Standards Institute, Performance standards for antimicrobial susceptibility testing; twentyforth informational supplement M100-S24. Wayne, Pa., 2014). Polymyxin B sulphate was employed as the control. […] The following isolates were examined: Pseudomonas aeruginosa ATCC 27853, Pseudomonas aeruginosa FADDI-PA022*, Pseudomonas aeruginosa FADDI-PA01*, Pseudomonas aeruginosa FADDI-PA038*, Acinetobacter baumannii FADDI-AB034*, Acinetobacter baumannii ATCC 17978, Acinetobacter baumannii FADDI-AB030*, Klebsiella pneumoniae FADDI-KP032, Klebsiella pneumoniae FADDI-KP022*, Klebsiella pneumoniae Kp BM1*, Enterobacter cloacae FADDI-EC006, Enterobacter cloacae FADDI-EC001, and Enterobacter cloacae FADDI-EC003 (* Multi drug-resistant clinical isolates, § New Delhi Metallo-beta-lactamase-1 (NDM-1) producing). The results are illustrated in Tables 4 and 5. […]
# [2] = system: Pseudomonas aeruginosa FADDI-PA022; settings: FADDI-PA022
# Method: (§1) MICs of the lipopeptides (trifluoroacetic acid salt, TFA) were determined by broth microdilution in cation-adjusted Mueller-Hinton broth (CAMHB) (Oxoid Australia, Thebarton, SA, Australia) according to the Clinical and Laboratory Standards Institute protocol (Clinical and Laboratory Standards Institute, Performance standards for antimicrobial susceptibility testing; twentyforth informational supplement M100-S24. Wayne, Pa., 2014). Polymyxin B sulphate was employed as the control. Antimicrobial activity of Compounds 1-104 against polymyxin-susceptible Gram-negative bacteria was examined. The following isolates were examined: Pseudomonas aeruginosa ATCC 27853, Pseudomonas aeruginosa FADDI-PA022*, Pseudomonas aeruginosa FADDI-PA01*, Pseudomonas aeruginosa FADDI-PA038*, Acinetobacter baumannii FADDI-AB034*, Acinetobacter baumannii ATCC 17978, Acinetobacter baumannii FADDI-AB030*, Klebsiella pneumoniae FADDI-KP032, Klebsiella pneumoniae FADDI-KP022*, Klebsiella pneumoniae Kp BM1*, Enterobacter cloacae FADDI-EC006, Enterobacter cloacae FADDI-EC001, and Enterobacter cloacae FADDI-EC003 (* Multi drug-resistant clinical isolates, § New Delhi Metallo-beta-lactamase-1 (NDM-1) producing). The results are illustrated in Tables 4 and 5.
# [3] = system: Enterobacter cloacae FADDI-EC006; settings: FADDI-EC006
# Method: as §1
# [4] = system: Klebsiella pneumoniae FADDI-KP022; settings: FADDI-KP022
# Method: as §1
# [5] = system: Acinetobacter baumannii ATCC 17978; settings: ATCC 17978
# Method: as §1
# [6] = system: Enterobacter cloacae FADDI-EC001; settings: FADDI-EC001
# Method: as §1
# [7] = system: Klebsiella pneumoniae Kp BM1; settings: Kp BM1
# Method: as §1
# [8] = system: Pseudomonas aeruginosa FADDI-PA01; settings: FADDI-
# Method: as §1
# [9] = system: Pseudomonas aeruginosa FADDI-PA038; settings: FADDI-PA038
# Method: as §1
# [10] = system: Klebsiella pneumoniae FADDI-KP032; settings: FADDI-KP032
# Method: as §1
# [11] = system: Acinetobacter baumannii FADDI-AB034; settings: FADDI-AB034
# Method: as §1
# [12] = system: Enterobacter cloacae FADDI-EC003; settings: FADDI-EC003
# Method: as §1
# [13] = system: Pseudomonas aeruginosa ATCC 27853; settings: ATCC 27853
# Method: as §1
Structure (SMILES),Minimum inhibitory concentration [1] [µg/mL],Minimum inhibitory concentration [2] [µg/mL],Minimum inhibitory concentration [3] [µg/mL],Minimum inhibitory concentration [4] [µg/mL],Minimum inhibitory concentration [5] [µg/mL],Minimum inhibitory concentration [6] [µg/mL],Minimum inhibitory concentration [7] [µg/mL],Minimum inhibitory concentration [8] [µg/mL],Minimum inhibitory concentration [9] [µg/mL],Minimum inhibitory concentration [10] [µg/mL],Minimum inhibitory concentration [11] [µg/mL],Minimum inhibitory concentration [12] [µg/mL],Minimum inhibitory concentration [13] [µg/mL]
CC(C)C[C@H]1NC(=O)[C@H](CCN)NC(=O)[C@@H](NC(=O)[C@H](CN)NC(=O)[C@@H](NC(=O)[C@H](CCN)NC(=O)c2sc3ccccc3c2Cl)[C@@H](C)O)CCNC(=O)[C@H]([C@@H](C)O)NC(=O)[C@H](CCN)NC(=O)[C@H](CCN)NC(=O)[C@H]([C@@H](C)O)NC1=O [Compound 68] (X27-[Dab]T[Dap][Dab][Dab][dL]T[Dab][Dab]T; lactam 4-C),<0.125,0.25,0.25,<0.125,0.25,<0.125,0.25,0.5,1,0.25,<0.125,<0.125,0.25
CC[C@@H]1NC(=O)[C@@H](CC(C)C)NC(=O)[C@H](CCN)NC(=O)[C@@H](NC(=O)[C@H](CN)NC(=O)[C@@H](NC(=O)[C@H](CCN)NC(=O)c2cc3cc(Cl)ccc3n2C)[C@@H](C)O)CCNC(=O)[C@H]([C@@H](C)O)NC(=O)[C@H](CCN)NC(=O)[C@H](CCN)NC1=O [Compound 58] (X6-[Dab]T[Dap][Dab][Dab][dL][Abu][Dab][Dab]T; lactam 4-C),0.25,0.5,0.5,<0.125,0.25,1,0.25,0.5,2,0.5,0.5,<0.125,0.5
CC(C)C[C@H]1NC(=O)[C@H](CCN)NC(=O)[C@@H](NC(=O)[C@H](CN)NC(=O)[C@@H](NC(=O)[C@H](CCN)NC(=O)c2ccc(-c3ccc(Cl)cc3)s2)[C@@H](C)O)CCNC(=O)[C@H]([C@@H](C)O)NC(=O)[C@H](CCN)NC(=O)[C@H](CCN)NC(=O)[C@H]([C@@H](C)O)NC1=O [Compound 17] (X37-[Dab]T[Dap][Dab][Dab][dL]T[Dab][Dab]T; lactam 4-C),0.25,1,0.5,<0.125,2,0.25,0.5,0.5,1,0.5,1,1,1
CC[C@@H]1NC(=O)[C@@H](CC(C)C)NC(=O)[C@H](CCN)NC(=O)[C@@H](NC(=O)[C@H](CN)NC(=O)[C@@H](NC(=O)[C@H](CCN)NC(=O)c2cc(Br)cs2)[C@@H](C)O)CCNC(=O)[C@H]([C@@H](C)O)NC(=O)[C@H](CCN)NC(=O)[C@H](CCN)NC1=O [Compound 88] (X10-[Dab]T[Dap][Dab][Dab][dL][Abu][Dab][Dab]T; lactam 4-C),0.5,0.5,0.5,<0.125,0.5,<0.125,0.25,0.5,0.5,0.5,0.5,0.5,0.5
CC[C@@H]1NC(=O)[C@@H](CC(C)C)NC(=O)[C@H](CCN)NC(=O)[C@@H](NC(=O)[C@H](CN)NC(=O)[C@@H](NC(=O)[C@H](CCN)NC(=O)c2cc3cc(Cl)ccc3[nH]2)[C@@H](C)O)CCNC(=O)[C@H]([C@@H](C)O)NC(=O)[C@H](CCN)NC(=O)[C@H](CCN)NC1=O [Compound 59] (X47-[Dab]T[Dap][Dab][Dab][dL][Abu][Dab][Dab]T; lactam 4-C),0.5,0.5,0.5,<0.125,0.5,0.25,0.5,0.25,1,0.25,<0.125,0.25,0.5
CC[C@@H]1NC(=O)[C@@H](CC(C)C)NC(=O)[C@H](CCN)NC(=O)[C@@H](NC(=O)[C@H](CN)NC(=O)[C@@H](NC(=O)[C@H](CCN)NC(=O)c2cccc(Cl)n2)[C@@H](C)O)CCNC(=O)[C@H]([C@@H](C)O)NC(=O)[C@H](CCN)NC(=O)[C@H](CCN)NC1=O [Compound 43] (X54-[Dab]T[Dap][Dab][Dab][dL][Abu][Dab][Dab]T; lactam 4-C),4,0.25,0.5,<0.125,4,<0.125,0.25,0.25,1,0.25,4,0.25,0.25
CC[C@@H]1NC(=O)[C@@H](CC(C)C)NC(=O)[C@H](CCN)NC(=O)[C@@H](NC(=O)[C@H](CN)NC(=O)[C@@H](NC(=O)[C@H](CCN)NC(=O)c2cn3cc(C)ccc3n2)[C@@H](C)O)CCNC(=O)[C@H]([C@@H](C)O)NC(=O)[C@H](CCN)NC(=O)[C@H](CCN)NC1=O [Compound 49] (X5-[Dab]T[Dap][Dab][Dab][dL][Abu][Dab][Dab]T; lactam 4-C),1,0.5,1,<0.125,2,<0.125,0.25,0.25,0.5,<0.125,4,<0.125,0.25
